From patent US20240358842A1, “PROTEIN STABILIZING COMPOUNDS CONTAINING USP7 LIGANDS” (Stablix, Inc., priority 2021, published 2024)
pIC50, pKd: −log10 of the molar value. Like-named read-outs stand apart in the source and are kept apart here.

Assays:
[1] = target: T1, USP7 CD + UBL 1-5 (Homo sapiens, UniProt Q93009); experiment: Surface plasmon resonance assay (SPR); type: binding
T1 construct: USP7 CD +
Procedure: The surface plasmon resonance experiments were performed using a Cytiva (formerly GE Healthcare) Biacore 8K equipped with a Series S Sensor Chip SA. The ligands were immobilized via a biotin-modified biotin acceptor peptide. USP7 Ligands were diluted in running buffer (HBS-P+2% DMSO; 10 mM HEPES, pH 7.4, 150 mM NaCl, 1 mM DTT, 0.05% P20, 2% DMSO) to 100 μg/mL and injected at […] until a density between 500-10,000 RU was reached on flow-cell two of each channel, and flow cell one was left blank to serve as a reference surface. Both surfaces were washed until a stable baseline was achieved then 30 startup cycles to condition the surface. To collect kinetic and steady-state binding data, the small molecule analytes were prepared in three-fold dilution series in HBS-P+2% DMSO running buffer. Analytes were injected over both flow cells at a flow rate of […] at 25° C. The complex was allowed to associate for 60 seconds and dissociate for 300 seconds. Data were collected at 10 Hz. The data were fit to a simple 1:1 interaction model global data analysis within Cytiva Biacore Insight Evaluation Software.

[2] = target: USP7 (Homo sapiens, UniProt Q93009); experiment: Ub-Rho cleavage assay; type: biochemical
Procedure: All fluorescence measurements were performed on a Molecular Devices FlexStation3 with excitation at 480 nm and emission 540 nm, PMT Gain: Medium, Flash Number: 10. […] Assay buffer for all measurements was 50 mM HEPES, 100 mM NaCl, 0.5 mM EDTA, 1 mM TCEP, 0.1 mg/ml BSA, 0.01% Tween-20, pH 7.8. […] Serial dilutions were made with a Mosquito HTS (SPT Labtech) nanoliter liquid handler. 200 nL of each compound in duplicate or DMSO control were transferred to the assay plate. The first two columns served as positive controls. 9.8 μl per well of USP7 working solution was added to the assay plate. Compound+Protein was incubated for 25 min at 25° C. 10 uL of Ub-Rho substrate was added per well and incubated for an additional 15 min at 25° C. Fluorescence was then measured. Percent response relative to DMSO controls was calculated in GraphPad or Scinamic, and the data was fitted to a non-linear regression to determine IC50 values.

[3] = steady-state KD, read-out: SPR USP7 CD + UBL 1-5 (KD_ss)
[4] = kinetic KD, read-out: SPR USP7 CD + UBL 1-5 (KD_kinetic)
[5] = Ub-Rho substrate, recombinant USP7, read-out: Ub (Rho) USP7.1 (IC50)

Chain of USP7 (Q93009 whole entry): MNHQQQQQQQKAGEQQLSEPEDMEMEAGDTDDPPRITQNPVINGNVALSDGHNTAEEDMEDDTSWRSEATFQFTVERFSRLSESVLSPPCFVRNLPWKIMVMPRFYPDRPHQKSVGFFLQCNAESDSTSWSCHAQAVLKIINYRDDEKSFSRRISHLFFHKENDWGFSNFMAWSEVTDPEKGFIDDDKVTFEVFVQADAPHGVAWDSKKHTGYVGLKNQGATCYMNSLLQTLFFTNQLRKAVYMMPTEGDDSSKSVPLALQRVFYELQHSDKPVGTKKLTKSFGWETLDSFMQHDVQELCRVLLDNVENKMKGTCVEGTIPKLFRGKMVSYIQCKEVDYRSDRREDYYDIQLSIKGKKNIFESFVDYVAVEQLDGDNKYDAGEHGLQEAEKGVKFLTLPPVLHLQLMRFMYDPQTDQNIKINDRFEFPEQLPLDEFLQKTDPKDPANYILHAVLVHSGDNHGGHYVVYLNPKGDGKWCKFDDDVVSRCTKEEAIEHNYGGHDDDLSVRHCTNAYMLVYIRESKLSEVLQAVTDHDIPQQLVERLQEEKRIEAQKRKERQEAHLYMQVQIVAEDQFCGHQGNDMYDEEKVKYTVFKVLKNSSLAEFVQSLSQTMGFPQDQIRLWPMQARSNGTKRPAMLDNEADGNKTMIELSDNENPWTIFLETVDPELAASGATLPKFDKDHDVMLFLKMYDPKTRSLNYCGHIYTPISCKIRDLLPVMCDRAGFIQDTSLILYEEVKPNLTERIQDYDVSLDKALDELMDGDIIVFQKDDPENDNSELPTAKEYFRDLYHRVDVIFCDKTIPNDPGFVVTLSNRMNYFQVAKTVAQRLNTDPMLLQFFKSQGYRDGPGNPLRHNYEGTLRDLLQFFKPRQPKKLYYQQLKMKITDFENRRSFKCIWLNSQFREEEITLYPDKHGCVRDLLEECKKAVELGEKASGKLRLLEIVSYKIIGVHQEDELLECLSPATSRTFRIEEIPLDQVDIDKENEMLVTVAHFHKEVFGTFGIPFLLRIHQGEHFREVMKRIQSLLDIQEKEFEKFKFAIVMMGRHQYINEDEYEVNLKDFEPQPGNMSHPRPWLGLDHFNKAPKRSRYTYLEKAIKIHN
T1 sequence (Q93009 208-1102 limits assumed): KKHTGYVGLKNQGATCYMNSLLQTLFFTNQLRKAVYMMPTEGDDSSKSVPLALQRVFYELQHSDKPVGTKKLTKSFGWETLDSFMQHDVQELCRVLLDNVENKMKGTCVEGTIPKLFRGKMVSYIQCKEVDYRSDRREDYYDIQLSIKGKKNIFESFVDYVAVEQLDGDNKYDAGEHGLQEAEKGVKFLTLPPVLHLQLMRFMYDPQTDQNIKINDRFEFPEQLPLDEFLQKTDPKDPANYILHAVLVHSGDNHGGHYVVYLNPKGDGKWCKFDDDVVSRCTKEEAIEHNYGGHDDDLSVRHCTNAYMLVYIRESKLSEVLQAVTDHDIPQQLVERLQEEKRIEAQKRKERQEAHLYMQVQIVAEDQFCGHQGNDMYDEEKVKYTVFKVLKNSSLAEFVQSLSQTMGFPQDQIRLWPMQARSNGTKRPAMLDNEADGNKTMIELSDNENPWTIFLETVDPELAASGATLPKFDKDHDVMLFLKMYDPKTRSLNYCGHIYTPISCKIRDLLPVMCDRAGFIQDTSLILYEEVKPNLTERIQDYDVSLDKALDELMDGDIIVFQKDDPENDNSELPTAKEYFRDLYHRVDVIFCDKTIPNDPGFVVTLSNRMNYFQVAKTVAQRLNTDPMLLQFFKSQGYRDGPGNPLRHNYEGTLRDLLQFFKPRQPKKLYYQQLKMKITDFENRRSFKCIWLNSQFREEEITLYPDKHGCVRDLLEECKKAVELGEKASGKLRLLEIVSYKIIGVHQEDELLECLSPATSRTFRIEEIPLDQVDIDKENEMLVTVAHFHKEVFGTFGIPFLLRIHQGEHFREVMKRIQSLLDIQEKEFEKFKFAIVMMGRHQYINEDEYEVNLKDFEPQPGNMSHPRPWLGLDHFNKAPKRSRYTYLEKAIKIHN

| pKd [1, 3] | pKd [1, 4] | pIC50 [2, 5] | Kd ([1]; SPR USP7 CD + UBL 1-5 (KD_ss) [nM], steady-state KD) | pIC50 [2] | SMILES |
| --- | --- | --- | --- | --- | --- |
| 4.00 to 6.00 | – | – | – | – | O=C(CCc1ccccc1)N1CCC(O)(Cn2cnc3cc(Cl)ccc3c2=O)CC1 [U26] |
| > 6.00 | > 6.00 | > 6.00 | – | – | Cc1cc(Cl)cc(-c2ccnc3cc(CN4C(=O)CCC4=O)sc23)c1OC1CCN(CCCCCCCNC(=O)OC(C)(C)C)CC1 [U30] |
| > 6.00 | – | > 6.00 | – | – | C[C@H](CC(=O)N1CCC(O)(Cn2cnc3c(C#CCO)n(C)nc3c2=O)CC1)c1ccccc1 [U23] |
| > 6.00 | – | 4.00 to 6.00 | – | – | CCc1c(-c2ccc(C(=O)NC)nc2)cnc(NCCN)c1-c1ccc(O)cc1 [U62] |
| 4.00 to 6.00 | – | < 4.00 | – | – | C=CC(=O)N1CCC(C(=O)Nc2nc3ccc(NS(=O)(=O)c4cccs4)cc3s2)C1 (stereo not drawn) [U129] |
| > 6.00 | – | 4.00 to 6.00 | – | – | CCc1c(-c2ccc(O)cc2)cnc(NCCN=[N+]=[N-])c1-c1ccc(C(=O)NC)nc1 [U71] |
| 4.00 to 6.00 | – | 4.00 to 6.00 | – | – | Cc1cc(Cl)cc(-c2ccnc3cc(CN4C(=O)CCC4=O)sc23)c1OC1CCN(C(=O)CCOCCOCCOCCNC(=O)OC(C)(C)C)CC1 [U34] |
| 4.00 to 6.00 | – | 4.00 to 6.00 | – | – | O=C(Nc1nc2ccc(NS(=O)(=O)c3cccs3)cc2s1)c1cc2n(n1)CCCN(C1CC1)C2 [U98] |
| 4.00 to 6.00 | – | < 4.00 | – | – | Cc1nocc1S(=O)(=O)Nc1ccc2nc(NC(=O)C3CCN(C)CC3)sc2c1 [U90] |
| > 6.00 | – | > 6.00 | – | – | C[C@H](CC(=O)N1CCC(O)(Cn2cnc3cc(NC(=O)CCN4CCN(CCN=[N+]=[N-])CC4)ccc3c2=O)CC1)c1ccccc1 [U46] |
| 4.00 to 6.00 | – | 4.00 to 6.00 | – | – | CCc1c(-c2ccc(C(=O)NCCOCCOCCOCCNC(=O)OC(C)(C)C)nc2)ccc(N)c1C1=CC=C(O)CC1 [U44] |
| 4.00 to 6.00 | – | < 4.00 | – | – | CN1CCCn2nc(C(=O)Nc3nc4ccc(NS(=O)(=O)C5CCNC5)cc4s3)cc2C1 (stereo not drawn) [U128] |
| < 4.00 | – | < 4.00 | – | – | CN1CCC(C(=O)Nc2nc3cc(NS(=O)(=O)c4cccs4)ccc3s2)CC1 [U88] |
| 4.00 to 6.00 | – | < 4.00 | – | – | CN1CCCn2nc(C(=O)Nc3nc4ccc(NS(=O)(=O)c5ccccn5)cc4s3)cc2C1 [U104] |
| 4.00 to 6.00 | – | < 4.00 | – | – | CCc1c(-c2ccc(C(=O)NCCCNC(=O)CCCCCCNC(=O)OC(C)(C)C)nc2)cnc(N)c1-c1ccc(O)cc1 [U51] |
| > 6.00 | – | < 4.00 | – | – | C[C@H](CC(=O)N1CCC(O)(Cn2cnc3cc(C#CCN)ccc3c2=O)CC1)c1ccccc1 [U29] |
| 4.00 to 6.00 | – | 4.00 to 6.00 | – | – | CCc1c(-c2ccc(C(=O)NCCCNC(=O)CCOCCNC(=O)OC(C)(C)C)nc2)cnc(N)c1-c1ccc(O)cc1 [U55] |
| > 6.00 | – | > 6.00 | – | – | Cc1cc(Cl)cc(-c2ccnc3cc(CN4C(=O)CCC4=O)sc23)c1OC1CCN(CCCNC(=O)CCCCCCCNC(=O)OC(C)(C)C)CC1 [U41] |
| > 6.00 | > 6.00 | > 6.00 | – | – | Cc1cc(Cl)cc(-c2ccnc3cc(CN4C(=O)CCC4=O)sc23)c1OC1CCNCC1 [U16] |
| 4.00 to 6.00 | – | 4.00 to 6.00 | – | – | CCc1c(-c2ccc(OCCN)cc2)cnc(N)c1-c1ccc(O)cc1 [U21] |
| > 6.00 | – | 4.00 to 6.00 | – | – | C[C@H](CC(=O)C1CCC(O)(Cn2cnc3cc(C#CCN=[N+]=[N-])ccc3c2=O)CC1)c1ccccc1 (stereo partly drawn) [U28] |
| 4.00 to 6.00 | – | < 4.00 | – | – | CS(=O)(=O)c1nccc(Nc2nc3ccc(NS(=O)(=O)c4cccs4)cc3s2)n1 [U80] |
| 4.00 to 6.00 | – | < 4.00 | – | – | Cn1nc(C(=O)Nc2nc3ccc(NS(=O)(=O)c4cccs4)cc3s2)cc1CN1CCC(CO)CC1 [U105] |
| > 6.00 | > 6.00 | > 6.00 | – | – | Cc1cc(Cl)cc(-c2ccnc3cc(CN4C(=O)CCC4=O)sc23)c1OC1CCN(CCCNC(=O)OC(C)(C)C)CC1 [U9] |
| 4.00 to 6.00 | – | < 4.00 | – | – | CCc1c(-c2ccc(C(=O)NCCCNC(=O)CCCCCCCCNC(=O)OC(C)(C)C)nc2)cnc(N)c1-c1ccc(O)cc1 [U54] |
| 4.00 to 6.00 | – | < 4.00 | – | – | CN1CCCn2nc(C(=O)Nc3nc4ccc(NS(=O)(=O)c5cc6ccccn6n5)cc4s3)cc2C1 [U130] |
| > 6.00 | > 6.00 | > 6.00 | – | – | C[C@H](CC(=O)N1CCC(O)(Cn2cnc3cc(NCCN(C)CCCNC(=O)OC(C)(C)C)ccc3c2=O)CC1)c1ccccc1 [U6] |
| 4.00 to 6.00 | – | 4.00 to 6.00 | – | – | CCOC(=O)NCc1ccc(-c2ccc3n[nH]cc3c2)c(CC)c1-c1ccc(O)cc1 [U78] |

| pKd [1, 3] | pKd [1, 4] | pIC50 [2, 5] | Kd ([1]; SPR USP7 CD + UBL 1-5 (KD_ss) [nM], steady-state KD) | pIC50 [2] | SMILES |
| --- | --- | --- | --- | --- | --- |
| < 4.00 | – | < 4.00 | – | – | CN1CCC(NC(=O)c2nc3ccc(NS(=O)(=O)c4cccs4)cc3s2)CC1 [U92] |
| 4.00 to 6.00 | – | < 4.00 | – | – | NCCN(c1ccc2nc(NC(=O)c3ccco3)sc2c1)S(=O)(=O)c1cccs1 [U94] |
| > 6.00 | > 6.00 | > 6.00 | – | – | C[C@H](CC(=O)N1CCC(O)(Cn2cnc3cc(N(C)CCN(C)CCCNC(=O)OC(C)(C)C)ccc3c2=O)CC1)c1ccccc1 [U5] |
| 4.00 to 6.00 | – | – | – | – | C=CS(=O)(=O)Nc1ccccc1-c1ccc(C(=O)N2CCC(O)(Cn3cnc4c(cnn4C)c3=O)CC2)cc1 [U27] |
| – | – | – | < 1000 nM | > 6.00 | O=C(C[C@@H](C(F)F)n1ccc(F)n1)N1CCC(O)(Cn2cnc3c(cnn3-c3ccc(F)cc3)c2=O)CC1 [U25] |
| 4.00 to 6.00 | – | < 4.00 | – | – | CN(C)Cc1cc(C(=O)Nc2nc3ccc(NS(=O)(=O)c4cccs4)cc3s2)nn1C [U101] |
| > 6.00 | > 6.00 | > 6.00 | – | – | C[C@H](CC(=O)N1CCC(O)(Cn2cnc3c(-c4ccc(CNC(=O)OC(C)(C)C)cc4)n(C)nc3c2=O)CC1)c1ccccc1 [U14] |
| 4.00 to 6.00 | – | < 4.00 | – | – | CC(=O)N1CCCn2nc(C(=O)Nc3nc4ccc(NS(=O)(=O)c5cccs5)cc4s3)cc2C1 [U96] |
| 4.00 to 6.00 | 4.00 to 6.00 | < 4.00 | – | – | Cc1cc(Cl)cc(-c2ccnc3cc(CN4C(=O)CCC4=O)sc23)c1OC1CCN(C(=O)OC(C)(C)C)CC1 [U15] |
| 4.00 to 6.00 | 4.00 to 6.00 | < 4.00 | – | – | CN1CCCn2nc(C(=O)Nc3nc4ccc(NS(=O)(=O)c5cccs5)cc4s3)cc2C1 [U77] |
| > 6.00 | – | 4.00 to 6.00 | – | – | C[C@H](CC(=O)N1CCC(O)(Cn2cnc(N3CCN(CCN)CC3)cc2=O)CC1)c1ccccc1 [U59] |
| 4.00 to 6.00 | – | < 4.00 | – | – | CN1CC2CN(C(=O)Nc3nc4ccc(NS(=O)(=O)c5cccs5)cc4s3)CC2C1 (stereo not drawn) [U117] |
| 4.00 to 6.00 | – | < 4.00 | – | – | CCC(=O)N1CCC(C(=O)Nc2nc3ccc(NS(=O)(=O)c4cccs4)cc3s2)C1 (stereo not drawn) [U122] |
| > 6.00 | > 6.00 | > 6.00 | – | – | C[C@H](CC(=O)N1CCC(O)(Cn2cnc3c(C#CCO)csc3c2=O)CC1)c1ccccc1 [U1] |
| 4.00 to 6.00 | – | < 4.00 | – | – | O=C(O)c1ccc(Nc2nc3ccc(NS(=O)(=O)c4cccs4)cc3s2)nn1 [U84] |
| 4.00 to 6.00 | – | < 4.00 | – | – | O=C(Nc1nc2ccc(NS(=O)(=O)c3cccs3)cc2s1)c1ccn[nH]1 [U118] |
| > 6.00 | – | > 6.00 | – | – | C[C@H](CC(=O)N1CCC(O)(Cn2cnc3cc(NCCN4CCN(CCCNC(=O)OC(C)(C)C)CC4)ccc3c2=O)CC1)c1ccccc1 [U35] |
| 4.00 to 6.00 | – | < 4.00 | – | – | NC1CCn2nc(C(=O)Nc3nc4ccc(NS(=O)(=O)c5cccs5)cc4s3)cc2C1 (stereo not drawn) [U112] |
| – | > 6.00 | > 6.00 | – | – | C[C@H](CC(=O)N1CCC(O)(Cn2cnc3c(-c4ccc(CNC(=O)CCCCNC(=O)OC(C)(C)C)cc4)n(C)nc3c2=O)CC1)c1ccccc1 [U131] |
| 4.00 to 6.00 | – | 4.00 to 6.00 | – | – | CCc1c(-c2ccc3[nH]ncc3c2)c(C#N)nc(CNC(=O)OC(C)(C)C)c1-c1ccc(O)cc1 [U86] |
| < 4.00 | – | < 4.00 | – | – | CN1CCC(C(=O)Nc2nc3ccc(N(C)S(=O)(=O)c4cccs4)cc3s2)CC1 [U75] |
| < 4.00 | – | < 4.00 | – | – | CN1CCCn2nc(C(=O)Nc3nc4ccc(N(C)S(=O)(=O)c5cccs5)cc4s3)cc2C1 [U111] |
| > 6.00 | – | > 6.00 | – | – | Cc1cc(Cl)cc(-c2ccnc3cc(CN4C(=O)CCC4=O)sc23)c1OC1CCN(C(=O)CN=[N+]=[N-])CC1 [U19] |
| 4.00 to 6.00 | – | < 4.00 | – | – | O=C(Nc1nc2ccc(NS(=O)(=O)c3cccs3)cc2s1)N1CCOCC1 [U126] |
| 4.00 to 6.00 | – | < 4.00 | – | – | CN1CCn2cnc(C(=O)Nc3nc4ccc(NS(=O)(=O)c5cccs5)cc4s3)c2C1 [U97] |
| 4.00 to 6.00 | – | < 4.00 | – | – | CN1CCn2cc(C(=O)Nc3nc4ccc(NS(=O)(=O)c5cccs5)cc4s3)nc2C1 [U99] |
| < 4.00 | – | < 4.00 | – | – | CN1CCC(C(=O)Nc2nc3ncc(NS(=O)(=O)c4cccs4)cc3s2)CC1 [U79] |
